How the values were obtained:
[1] = test system: idiopathic pulmonary fibrosis; assay: Idiopathic pulmonary fibrosis animal model (bleomycin); assay type: in vivo, SD rats; settings: intraperitoneal (IP) 5 mg/kg, 3 consecutive weeks, FIG. 6; for pathology scores: H&E and Masson staining; for WBC: alveolar lavage fluid; for HYP: lung tissue
Method: In this test example, the efficacy of the compounds of the present disclosure was tested on idiopathic pulmonary fibrosis in an idiopathic pulmonary fibrosis animal model. Briefly, anesthetized 6-week-old SD rats were fixed on a foam board with medical tape. Firstly, the skin on the surface of the trachea was cut with surgical scissors to fully expose the trachea, and a 100-microlitre micro-syringe containing a certain volume of bleomycin (BLM 5 mg/kg) solution drawn based on the body weight of the rat was inserted into the trachea through the oral cavity to administer by slow bolus injection. After administration of the BLM solution, the foam plate was immediately rotated and shaken to distribute the BLM solution as evenly as possible in the lung tissue. Then the skin on the surface of the trachea was sutured with surgical sutures and about 0.5 to 1.0 mL of penicillin solution was dripped onto the epidermis to prevent infection of the surgical wound. After the 7th day of modelling, the compound solution of the present disclosure was administered via intraperitoneal (IP) injection (5 mg/kg) according to the weight of the rat for 3 consecutive weeks. Rats were euthanized by carbon dioxide on Day 28, the lung tissues were removed, the left alveolar lavage fluid was collected for white blood cell (WBC) counting, the right lung tissue portion was used for hydroxyproline (HYP) assay, and the remaining lung tissues were stained for pathology by H&E staining and Masson staining.

[2] = test system: wet-age-related macular degeneration; assay: CNV animal model of wet-age-related macular degeneration; assay type: in vivo, mice; settings: intravitreal (IVT), FIG. 5
Method: In this test example, the efficacy of the compounds of the present disclosure was tested on wet-age-related macular degeneration in a CNV animal model.
Male mice were administered 0.5% probacaine hydrochloride (Alcon) for local anesthesia, and 1% tropicamide to dilate the pupils of the mice. Laser cauterization was performed using a laser photocoagulator (Novus Varia, LUMENIS) with a slit lamp delivery system. And artificially torn adherent glass coverslips were used as contact lenses. Bleeding spots caused by lasers were not included in the statistics. In each experimental group, six mice were analyzed with four impacts per eye to overcome inherent variability.

[3] = test system: aging skin; assay: Aging skin, naturally aging mouse model; assay type: in vivo, C57bl/6J mice; settings: skin application twice a week for 6 consecutive weeks, FIG. 10
Method: In this test example, aged female C57bl/6J mice (22 months old) were used. The drug was administered by skin application twice a week for 6 consecutive weeks.

[4] = test system: senescent cells; assay: Senescent cell killing, CellTiter-Glo cell viability; assay type: cell-based, human, mouse; settings: activity of killing senescent cells; cell type not specified
Source text: In this test example, human non-small cell lung cancer cell line (A549 cells), human embryonic lung fibroblast cell line (IMR90 cells), human retinal pigment epithelial cells (RPE cells), mouse chondrocytes, and mouse skin fibroblasts were selected. The above cells were induced by etoposide ([…]) to obtain their senescent cells. The effect of the target compounds on the viability of normal and senescent cells above was examined, thus assessing the specific killing effect of the compounds on senescent cells above.
Briefly, senescent and normal cells above were selected and plated separately (96-well plates). […] 2A to 2E.

[5] = test system: diabetic retinopathy; assay: Mouse model of diabetic retinopathy (STZ), retinal Evans blue penetration assay; assay type: in vivo; settings: intravitreal (IVT), 1 μL of 200 μM at 8 and 9 weeks after STZ, FIG. 4
Method: The efficacy of the compounds of the present disclosure was studied in a mouse model of diabetic retinopathy by multiple administrations of streptozotocin (STZ). C57BL/6J mice at 6 to 7 weeks were weighed and their baseline blood glucose was measured (Sino). STZ (Sigma-Alderich) was injected intraperitoneally into the mice at 55 mg/Kg for five consecutive days. Age-matched controls were injected with buffer only. Blood glucose was measured again one week after the last STZ injection. 1 μL of the test compound (200 μM, a suspension formulated in 0.015% polysorbate 80, 0.2% sodium phosphate, 0.75% sodium chloride, pH 7.2) was injected intravitreally into the STZ-treated diabetic C57BL/6J mice at 8 and 9 weeks after STZ administration. 10 weeks after STZ treatment, the retinal Evans blue penetration assay was performed.

[6] = test system: osteoarthritis; assay: Osteoarthritis animal model; assay type: in vivo, mice; settings: intra-articular injection, FIG. 7
Method: In this test example, the efficacy of the compounds of the present disclosure was tested on osteoarthritis in an osteoarthritis animal model.
The osteoarthritis animal model was constructed by the following steps. The mice were anesthetized with isoflurane, and fixed. The hair on the right hind limb of the mice was shaved and the skin was disinfected with alcohol, and the skin of the joints was cut. Under an optical microscope, the inside of the right knee joint was incised longitudinally with a blade, without cutting the patellar ligament. The patellar ligament was pulled to one side with constant hemostasis by compression with sterile cotton swabs such that the joint cavity was fully exposed. Saline was added dropwise in time to avoid the drying up of the joint cavity. The excess muscle tissue was gently separated with a blunt forceps to expose the meniscus ligament. The anterior cruciate ligament was found in the depth of the joint cavity and cut with a micro scissor. Then the wound was disinfected with penicillin solution, the muscle was sutured with sterile needle and thread, and the skin tissue was finally sutured. The efficacy of the drug was determined by intra-articular injection administration. At the endpoint of the test, continued pain threshold of the plantar was detected, and the bone joints were stained with safranin fast green.

[7] = test system: Alzheimer's disease; assay: Alzheimer's disease APP×PS1 transgenic mouse model; assay type: in vivo; settings: intraperitoneal injection, 11 consecutive weeks, twice a week, FIG. 8
Method: In this test example, the efficacy of the compounds of the present disclosure was tested on Alzheimer's disease in an animal model of Alzheimer's disease. Briefly, a transgenic mouse model of APP×PS1 (purchased from Cyagen Biosciences) was selected, and the compound of the present disclosure was administered by intraperitoneal injection for 11 consecutive weeks, twice a week. Alterations in amyloid in the cerebral cortex of the mice were observed.

[8] = test system: platelets; assay: Platelet toxicity test in mice (platelet count); assay type: in vivo
Method: In this test example, C57 mice were chosen to detect the effect of the target compounds on platelets.
7 to 8 weeks old […] mice were randomly divided into vehicle group and compound group. The test compound (0.5 mg/kg) or blank vehicle was administrated via single intraperitoneal injection. Blood was collected from the retroorbital venous plexus of the mice at 6 hours, and placed in a blood routine tube containing anticoagulant EDTA-K2. After shaking gently, the blood physiological indicators were measured using a hematology analyzer, with the platelet count as the target parameter for this platelet toxicity test.

## Cc1c(-c2ccc(N3CCc4cccc(C(=O)Nc5nc6ccccc6s5)c4C3)nc2C(=O)N2CCN(CCO)CC2)cnn1CC12CC3CC(CC(C3)C1)C2 [RX002]
[1]
  pathology scores: statistically significant improvements
  WBC: statistically significant improvements
  HYP: statistically significant improvements
[2]
  fluorescence intensity indicators: statistically significant improvements
[3]
  epidermal thickness scores of the skins: statistically significant improvements
[4]
  IC50: < 0.2 µM
[5]
  vascular permeability, choroidal vascular leakage: improved
  vascular permeability, retinal vascular leakage: improved
[6]
  pathology scores of safranin fast green staining: statistically significant improvements
  plantar mechanical pain threshold: statistically significant improvements
[7]
  Aβ42 pathogenic protein indicators: statistically significant improvements

## Cc1c(-c2ccc(N3CCc4cccc(C(=O)Nc5nc6ccccc6s5)c4C3)nc2C(=O)NC2CCN(Cc3ccccc3)CC2)cnn1CC12CC3CC(CC(C3)C1)C2 [RX003]
[1]
  pathology scores: statistically significant improvements
  WBC: statistically significant improvements
  HYP: statistically significant improvements
[2]
  fluorescence intensity indicators: statistically significant improvements
[3]
  epidermal thickness scores of the skins: statistically significant improvements
[5]
  vascular permeability, choroidal vascular leakage: improved
  vascular permeability, retinal vascular leakage: improved
[6]
  pathology scores of safranin fast green staining: statistically significant improvements
  plantar mechanical pain threshold: statistically significant improvements
[7]
  Aβ42 pathogenic protein indicators: statistically significant improvements

## Cc1c(-c2ccc(N3CCc4cccc(C(=O)Nc5nc6ccccc6s5)c4C3)nc2C(=O)N2CCNC(=O)C2)cnn1CC12CC3CC(CC(C3)C1)C2 [RX004]
[4]
  IC50: 0.2 to 1 µM

## Cc1c(-c2ccc(N3CCc4cccc(C(=O)Nc5nc6ccccc6s5)c4C3)nc2C(=O)NCc2ccco2)cnn1CC12CC3CC(CC(C3)C1)C2 [RX005]
[4]
  IC50: > 10 µM

## Cc1c(-c2ccc(N3CCc4cccc(C(=O)Nc5nc6ccccc6s5)c4C3)nc2C(=O)N2CCN(C)CC2)cnn1CC12CC3CC(CC(C3)C1)C2 [RX007]
[4]
  IC50: 0.2 to 1 µM

## Cc1c(-c2ccc(N3CCc4cccc(C(=O)Nc5nc6ccccc6s5)c4C3)nc2C(=O)N2CCNCC2)cnn1CC12CC3CC(CC(C3)C1)C2 [RX008]
[4]
  IC50: 0.2 to 1 µM

## Cc1c(-c2ccc(N3CCc4cccc(C(=O)Nc5nc6ccccc6s5)c4C3)nc2C(=O)N2CCOCC2)cnn1CC12CC3CC(CC(C3)C1)C2 [RX009]
[4]
  IC50: < 0.2 µM

## Cc1c(-c2ccc(N3CCc4cccc(C(=O)Nc5nc6ccccc6s5)c4C3)nc2C(=O)NCC2CCOCC2)cnn1CC12CC3CC(CC(C3)C1)C2 [RX010]
[4]
  IC50: 0.2 to 1 µM

## Cc1c(-c2ccc(N3CCc4cccc(C(=O)Nc5nc6ccccc6s5)c4C3)nc2C(=O)N2CCC(CO)CC2)cnn1CC12CC3CC(CC(C3)C1)C2 [RX011]
[8]; mouse, in vivo, ip, 0.5 mg/kg
  platelet toxicity (platelet count): significantly improved
[4]
  IC50: < 0.2 µM

## Cc1c(-c2ccc(N3CCc4cccc(C(=O)Nc5nc6ccccc6s5)c4C3)nc2C(=O)NCCN2CCOCC2)cnn1CC12CC3CC(CC(C3)C1)C2 [RX012]
[4]
  IC50: 0.2 to 1 µM

## Cc1c(-c2ccc(N3CCc4cccc(C(=O)Nc5nc6ccccc6s5)c4C3)nc2C(=O)N2CCN(CCO)CC2)cnn1CC12CC3CC(CC(C3)C1)C2 [RX013]
[8]; mouse, in vivo, ip, 0.5 mg/kg
  platelet toxicity (platelet count): significantly improved
[4]
  IC50: < 0.2 µM

## Cc1c(-c2ccc(N3CCc4cccc(C(=O)Nc5nc6ccccc6s5)c4C3)nc2C(=O)NCCO)cnn1CC12CC3CC(CC(C3)C1)C2 [RX014]
[4]
  IC50: 1 to 10 µM

## Cc1c(-c2ccc(N3CCc4cccc(C(=O)Nc5nc6ccccc6s5)c4C3)nc2C(=O)NCC(=O)O)cnn1CC12CC3CC(CC(C3)C1)C2 [RX015]
[4]
  IC50: 1 to 10 µM

## Cc1c(-c2ccc(N3CCc4cccc(C(=O)Nc5nc6ccccc6s5)c4C3)nc2C(=O)N2CCN(CCN)CC2)cnn1CC12CC3CC(CC(C3)C1)C2 [RX016]
[8]; mouse, in vivo, ip, 0.5 mg/kg
  platelet toxicity (platelet count): significantly improved
[4]
  IC50: 0.2 to 1 µM

## Cc1c(-c2ccc(N3CCc4cccc(C(=O)Nc5nc6ccccc6s5)c4C3)nc2C(=O)N2CCC(O)CC2)cnn1CC12CC3CC(CC(C3)C1)C2 [RX019]
[8]; mouse, in vivo, ip, 0.5 mg/kg
  platelet toxicity (platelet count): significantly improved
[4]
  IC50: < 0.2 µM

## Cc1c(-c2ccc(N3CCc4cccc(C(=O)Nc5nc6ccccc6s5)c4C3)nc2C(=O)NCC(=O)OCc2ccccc2)cnn1CC12CC3CC(CC(C3)C1)C2 [RX020]
[4]
  IC50: > 10 µM

## CCOC(=O)C(C)NC(=O)c1nc(N2CCc3cccc(C(=O)Nc4nc5ccccc5s4)c3C2)ccc1-c1cnn(CC23CC4CC(CC(C4)C2)C3)c1C (centres unmarked) [RX021]
[4]
  IC50: 1 to 10 µM

## CCOC(=O)CCC(NC(=O)c1nc(N2CCc3cccc(C(=O)Nc4nc5ccccc5s4)c3C2)ccc1-c1cnn(CC23CC4CC(CC(C4)C2)C3)c1C)C(=O)OCC (centres unmarked) [RX022]
[4]
  IC50: > 10 µM

## Cc1c(-c2ccc(N3CCc4cccc(C(=O)Nc5nc6ccccc6s5)c4C3)nc2C(=O)N2CCC(OP(=O)(O)O)CC2)cnn1CC12CC3CC(CC(C3)C1)C2 [RX302]
[4]
  IC50: < 0.2 µM

## Cc1c(-c2ccc(N3CCc4cccc(C(=O)Nc5nc6ccccc6s5)c4C3)nc2C(=O)N2CCN(CCOP(=O)(O)O)CC2)cnn1CC12CC3CC(CC(C3)C1)C2 [RX304]
[8]; mice, 0.5 mg/kg single intraperitoneal injection, blood at 6 hours, FIG. 1
  platelet toxicity (platelet count): significantly improved
[4]
  IC50: < 0.2 µM
